Test results: patent publication US11426393B2, “Prolyl hydroxylase inhibitors and methods of use” (Akebia Therapeutics, Inc., priority 2006, dated 2022)
pEC50, pIC50: −log10 of the molar value.

Legend:
VEGF = VEGF ELISA assay; type: cell-based; conditions: Homo sapiens; HEK293 cells; % of DFO stimulation
Experimental: HEK293 cells are seeded in 96-well poly-lysine coated plates at 20,000 ceils per well in DMEM (10% FBS, 1% NEAA, 0.1% glutamine). Following overnight incubation, the cells are washed with 100 uL of Opti-MEM (Gibco, Carlsbad, Calif.) to remove serum. Compound in DMSO is serially diluted (beginning with 100 μM) in Qpti-MEM and added to the cells. The conditioned media is analyzed for VEGF with a Quantikine human VEGF immunoassay kit (R&D Systems, Minneapolis, Minn.). Optical density measurements at 450 nm are recorded using the Spectra Max 250 (Molecular Devices, Sunnyvale, Calif.). Data defined as % of DFO stimulation is used to calculate EC50 values with GraphPad Prism 4 software (San Diego, Calif.).

HIF-1α = test: Mouse tissue HIF Western blot analysis; type: in vivo; conditions: mouse liver, FIG. 1
Experimental: (§1) Mouse Ischemic Hindlimb Study
(§2) All animal work is conducted in accordance with the Guide for the Care and Use of Laboratory Animals (National Academy of Sciences; Copyright©1996) and the Institutional Animal Care and Use Committee guidelines at Procter and Gamble Pharmaceuticals. We studied 9-10 week old male C57Bl/6 mice from Charles River Laboratory (Portage, Mich.). The mice are orally dosed with vehicle (aqueous carbonate buffer, 50 mM; pH 9.0) or compound 1 in vehicle at 50 mg/kg or 100 mg/kg. The animals are dosed three times: day 1 at 8 am and 5 pm, day 2 at […]. One hour after the first dose, unilateral arterial ligation is performed under anesthesia using isoflurane. The femoral artery is ligated proximal to the origin of the popliteal artery. The contralateral limb underwent a sham surgical procedure. Ligation is performed in an alternating fashion between right and left hindlimbs. Two hours after 8 am dosing on day 2, we obtained blood by ventricular stick while the mice are anesthetized with isoflurane. Serum samples for EPO analysis are obtained using gel clot serum separation tubes. Heart, liver, and gastrocnemius muscles are harvested, snap-frozen in liquid nitrogen, and stored in −80° C. until use.
Mouse Tissue HIF Western Blot Analysis
Tissues from mice stored at −80° C. are powdered with mortar and pestle chilled with liquid nitrogen. […]

EPO = test: Mouse serum EPO assay (mouse ischemic hindlimb study); type: in vivo
Experimental: as §1, §2
The mouse serum EPO is detected using Mouse Quantikine Erythropoietin ELISA kit from R&D Systems according to manufacturer's ins tractions.

human EGLN-3 = human EGLN-3 (Homo sapiens (Human), UniProt Q9H6Z9); test: EGLN-3 activity assay (MALDI-TOF MS); type: biochemical; conditions: His-MBP-TVMV-EGLN-3 fusion; HIF-1α peptide 556-574 as substrate; read-out: EGLIN3 IC50
Experimental: (§3) Data defined as percent conversion of substrate to product is analyzed in GraphPad Prism 4 to calculate IC50 values.

human EGLN-1 = human EGLN-1 (Homo sapiens (Human), UniProt Q9GZT9); test: EGLN-1 activity assay (MALDI-TOF MS); type: biochemical; conditions: read-out: EGLIN1 IC50
Experimental: as §3

human EGLN-1, sequence (Q9GZT9 179-426): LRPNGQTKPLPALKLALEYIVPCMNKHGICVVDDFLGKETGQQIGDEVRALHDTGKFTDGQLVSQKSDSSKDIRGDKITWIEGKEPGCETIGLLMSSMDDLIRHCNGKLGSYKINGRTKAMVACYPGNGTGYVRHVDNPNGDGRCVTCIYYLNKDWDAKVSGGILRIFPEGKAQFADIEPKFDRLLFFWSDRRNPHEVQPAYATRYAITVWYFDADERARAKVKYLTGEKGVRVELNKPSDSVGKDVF
human EGLN-3, sequence (Q9H6Z9 whole entry, the tested form may be a part): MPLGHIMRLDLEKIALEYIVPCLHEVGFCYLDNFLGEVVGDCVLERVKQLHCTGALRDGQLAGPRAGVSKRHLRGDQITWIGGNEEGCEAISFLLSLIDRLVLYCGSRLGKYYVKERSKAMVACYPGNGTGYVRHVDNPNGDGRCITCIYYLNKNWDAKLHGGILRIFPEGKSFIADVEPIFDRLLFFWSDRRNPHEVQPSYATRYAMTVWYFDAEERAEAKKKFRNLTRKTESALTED

| SMILES | pEC50 (VEGF) | also measured |
| --- | --- | --- |
| O=C(O)CNC(=O)c1ncc(-c2cccc(Cl)c2)cc1O [drawing 122] | 5.12 | – |
| O=C(O)CNC(=O)c1ncc(-c2cccc(Cl)c2)cc1O [{[5-(3-Chlorophenyl)-3-hydroxypyridine-2-carbonyl]amino}-acetic acid] | – | stabilization of HIF-1α (immunoblot analysis of nuclear extracts) (HIF-1α): stabilization of HIF-1α; erythropoietin level versus vehicle (EPO; mouse serum after oral dosing, FIG. 2): elevated versus vehicle |
| O=C(O)CNC(=O)c1ncc(-c2cccc(-c3nn[nH]n3)c2)cc1O | < 4.00 | – |
| O=C(O)CNC(=O)c1ncc(-c2cccc(C(=O)N3CCCC3)c2)cc1O | < 4.00 | – |
| CNC(=O)CNC(=O)c1ncc(-c2cccc(Cl)c2)cc1O | 5.85 | EPO response (EPO; in vivo response, mouse serum EPO): yes; pIC50 (human EGLN-3): 5.89; pIC50 (human EGLN-1): 5.92 |
| COC(=O)CNC(=O)c1ncc(-c2ccc(C)cc2)cc1O | 5.09 | – |
| CC(C)Oc1ccc(-c2cnc(C(=O)NCC(=O)O)c(O)c2)cc1 | < 4.00 | – |
| Cc1ccc(Cl)cc1-c1cnc(C(=O)NCC(=O)O)c(O)c1 | 5.48 | – |
| N#Cc1cccc(-c2cnc(C(=O)NCC(=O)O)c(O)c2)c1 | < 4.00 | – |
| CC(C)c1ccc(-c2cnc(C(=O)NCC(=O)O)c(O)c2)cc1 | 4.82 | – |
| COC(=O)CNC(=O)c1ncc(-c2cccc(Cl)c2)cc1O | 5.00 | – |
| COC(=O)CNC(=O)c1ncc(-c2cccc(C(=O)N3CCCC3)c2)cc1O | < 4.00 | – |
| COC(=O)CNC(=O)c1ncc(-c2ccccc2Cl)cc1O | 5.11 | – |
| COC(=O)CNC(=O)c1ncc(-c2cccc(C(N)=O)c2)cc1O | 4.30 | – |
| Cc1ccc(-c2ccc(C(=O)NCC(=O)O)c(O)c2)cc1 | < 4.00 | – |
| COC(=O)CNC(=O)c1ncc(-c2ccc(Cl)cc2)cc1O | < 4.00 | – |
